Test results reported in paper PMC4734766, “Pentamidine Is Not a Permeant but a Nanomolar Inhibitor of the Trypanosoma brucei Aquaglyceroporin-2” (PLoS Pathogens, 2016).
Read-outs that look alike come from different tables or passages of the source.

Experiments:
TbAQP2 [1] = target: T1, TbAQP2 (Trypanosoma brucei brucei, UniProt Q6ZXT3); settings: not told, pH 7.2
T1 sequence (Q6ZXT3 1-312): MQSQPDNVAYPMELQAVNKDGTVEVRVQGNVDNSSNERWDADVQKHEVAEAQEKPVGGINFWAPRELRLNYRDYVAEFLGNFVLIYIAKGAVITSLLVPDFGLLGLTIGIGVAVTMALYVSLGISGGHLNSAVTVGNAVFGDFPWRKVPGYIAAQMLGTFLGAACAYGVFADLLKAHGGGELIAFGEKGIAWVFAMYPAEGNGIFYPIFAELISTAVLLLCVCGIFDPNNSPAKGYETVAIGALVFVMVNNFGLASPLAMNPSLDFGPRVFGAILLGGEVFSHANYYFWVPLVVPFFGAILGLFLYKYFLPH

[2] = cited from earlier work
TbAQP2 [3] = target: T1, TbAQP2
TbAQP2 [4] = target: T1, TbAQP2; assay: cell-based
TbAQP2 [5] = target: T1, TbAQP2; settings: pH 5.5
TbAQP3 [6] = target: T2, TbAQP3 (Trypanosoma brucei brucei, UniProt Q6ZXT2)
other AQPs = settings: covalent cysteine-modification; cited from earlier work
yeast [7] = assay: Phenotypic yeast growth assay, pentamidine susceptibility on YPG (glycerol) media; format: cell-based, Saccharomyces cerevisiae; settings: pentamidine isethionate 1 or 10 μg ml–1, compared with non-expressing and TbAQP3 expressing cells
[8] = format: physicochemical; settings: prohibits a sufficiently concentrated gradient in the light-scattering assay
Description: Next, we employed a biophysical light-scattering assay for TbAQP2 permeability. We expressed TbAQP2 in a yeast strain that lacks the endogenous aquaglyceroporin (Δfps1), prepared protoplasts, and challenged them by a hypertonic, test solute-containing buffer. In an initial rapid phase, the protoplasts will release water following the outward osmotic gradient and shrink as indicated by an increase in light scattering. In the second slower phase, volume will be regained if the test solute can pass TbAQP2 and enter the protoplasts. […] We used instead two pairs of test solutes, glycerol/3-aminopropane-1,2-diol and urea/formamidine, of which glycerol and urea are established permeants of TbAQP2 [11], whereas the respective partners are bioisosteric nitrogen-derivatives, which are positively charged at neutral pH (Fig 1F). […] Formamidine is too strong a base (pKa 13) to be amenable to deprotonation in aqueous solution. […] The lack of permeability for the charged compounds is not due to molecule size, because formamidine is even smaller than urea. […] We conclude that organic cations fail to traverse the TbAQP2 channel.

TbAQP3 [9] = target: T2, TbAQP3; settings: up to 500 μM pentamidine added 10 min prior to the assay
yeast [10] = settings: cited from earlier work
[11] = test system: T. brucei expressing mutant TbAQP2 (GFPAQP2 L264R); assay: alamarBlue EC50 assay, aqp2-null strain expressing GFP-TbAQP2 Leu264Arg; settings: Trypanosoma brucei
Description: Bloodstream-form T. brucei, Lister 427, MiTat 1.2, clone 221a and derivatives were maintained as previously described [2]; 2T1 [1] and aqp2 null strains [2] were also described previously. Strains were transfected using a Nucleofector apparatus (Lonza) in conjunction with cytomix and transformants were selected with hygromycin (2.5 μg ml^–1). ^GFPAQP expression was induced by exposing cells to 1 μg ml^–1 tetracycline for 48 h. EC50 assays were carried out using alamarBlue as described [44, 45].

[12] = IC50, inhibition of TbAQP2 glycerol permeability

T2 sequence (Q6ZXT2 whole entry): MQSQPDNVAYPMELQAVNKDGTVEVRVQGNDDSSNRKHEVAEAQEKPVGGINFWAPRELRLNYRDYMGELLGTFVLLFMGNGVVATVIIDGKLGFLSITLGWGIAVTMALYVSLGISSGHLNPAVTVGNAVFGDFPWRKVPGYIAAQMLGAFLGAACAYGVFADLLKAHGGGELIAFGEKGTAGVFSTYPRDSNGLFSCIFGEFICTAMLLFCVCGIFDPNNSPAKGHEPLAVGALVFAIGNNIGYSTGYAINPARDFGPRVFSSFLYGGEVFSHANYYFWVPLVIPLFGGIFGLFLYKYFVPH

NCC(O)CO (stereo not shown) [3-aminopropane-1,2-diol]
permeability of TbAQP2 for the solute (TbAQP2 [1]): did not pass
pKa [2]: 9.2

COc1ccc(C(=N)N)cc1 [4-methoxy-benzamidine]
inhibition of TbAQP2 (in words) (TbAQP2 [3]): incapable of inhibiting TbAQP2

CCCCCOc1ccc(C(=N)N)cc1 [4-pentoxy-benzamidine]
IC50 (TbAQP2 [4]; [12]): 87 µM

CCCOc1ccc(C(=N)N)cc1 [4-propoxy-benzamidine]
maximal inhibition of TbAQP2 (TbAQP2 [3]): 60%
IC50 (TbAQP2 [4]; [12]): 2800 µM

N [NH4 ^+, ammonium]
NH4+ uptake on TbAQP2 expression (TbAQP2 [5]): neither expression of TbAQP2 nor TbAQP3 enhanced the NH4 ^+ uptake
NH4+ uptake on TbAQP3 expression (TbAQP3 [6]; pH 5.5, NH4+ as sole nitrogen source, versus cells without ammonium transporter): neither expression of TbAQP2 nor TbAQP3 enhanced the NH4 ^+ uptake

[Cl][Au]([Cl])[Cl].c1cnc2c(c1)ccc1cccnc12 [auphen]
IC50 (other AQPs): 0.8 µM

N=CN [formamidine]
permeability of TbAQP2 for the solute (TbAQP2 [1]): did not pass
pKa [2]: 13

OCC(O)CO [glycerol]
permeability of TbAQP2 for the solute (TbAQP2 [1]): showed permeability

CN [methylammonium]
permeability of TbAQP2 for the positively charged compound form (TbAQP2 [5]; not told): impermeable
permeability of TbAQP3 for the positively charged compound form (TbAQP3 [6]; 50 mM methylammonium, pH 5.5, yeast survival): impermeable

N#Cc1ccc(OCCCCCOc2ccc(C(=N)N)cc2)cc1 [nitrile-pentamidine]
IC50 (TbAQP2 [4]; [12]): 0.18 µM

N=C(N)c1ccc(OCCCCCOc2ccc(C(=N)N)cc2)cc1 [pentamidine]
pentamidine susceptibility of yeast on expression of TbAQP2 (yeast [7]): did not increase the susceptibility
solubility [8]: low solubility
block of TbAQP2 glycerol permeability (TbAQP2 [3]; not told): fully blocked
reduced affinity versus pH 7.2 (TbAQP2 [3]; pH 2.5): 8 times
reduced affinity versus pH 7.2 (TbAQP2 [3]; pH 3.5): 3 times
effect on glycerol permeability of TbAQP3 (TbAQP3 [9]): unaffected
IC50 (TbAQP2 [4]; [12]): 0.13 µM
IC50 (TbAQP2 [4]; IC50, pentamidine inhibition of TbAQP2, pH 2.5): 1.1 µM
IC50 (TbAQP2 [4]; IC50, pentamidine inhibition of TbAQP2, pH 3.5): 0.45 µM
cytotoxicity to yeast (yeast [10]): cytotoxic
pKa [2]: 12.1
EC50 [11]: 0.103 µM

NC(N)=O [urea]
permeability of TbAQP2 for the solute (TbAQP2 [1]): showed permeability
